Data as given in article PMC11909088, “Synthesis, molecular docking and molecular dynamics simulations, drug-likeness studies, ADMET prediction and biological evaluation of novel pyrazole-carboxamides bearing sulfonamide moiety as potent carbonic anhydrase inhibitors” (Molecular Diversity, 2024).

Tests used:
hCA I = hCA I (Homo sapiens, UniProt P00915); assay: Esterase activity inhibition of hCA I purified from human erythrocytes (IC50, Ki); type: biochemical; details: for inhibition effect on hCA I (in words): esterase activity; for Inhibition Type hCA I / Ki: Lineweaver-Burk plot; for Ki / IC50: NI = No Inhibition; for IC50: mean from three assays, spectrophotometric
Procedure: (§1) Esterase activities of purified hCA I and hCA II were determined according to the literature. Activity measurement has described in detail in our previous studies.
(§2) The method for determination of Ki values has described in detail in our previous studies. […] The data have linearized with Lineweaver–Burk plot in order to obtain Ki values.
(§3) IC50 and Ki values were expressed by averaging the results from triplicate experiments.
(§4) The enzymatic reaction, in a total volume of 3.0 mL, contained 1.4 mL of 0.05 M TRIS–SO4 buffer (pH 7.4), 1.0 mL of 3.0 mM 4-nitrophenylacetate, 0.5 mL H2O and 0.1 mL enzyme solution. A reference measurement was obtained by preparing the same cuvette without enzyme solution [46–49, 53].
(§5) Regression analysis graphs were drawn by plotting the percent enzyme activity versus inhibitor concentration and IC50 values were calculated.
(§6) Enzyme activity was also measured in the presence of the same substrate concentrations but in the absence of any inhibitor to determine the Vmax.

hCA II = hCA II (Homo sapiens, UniProt P00918); assay: Esterase activity inhibition of hCA II purified from human erythrocytes (IC50, Ki); type: biochemical; details: for inhibition effect on hCA II (in words): esterase activity; for Inhibition Type hCA II / Ki: Lineweaver-Burk plot; for Ki / IC50: NI = No Inhibition; for IC50: mean from three assays, spectrophotometric
Procedure: as §1, §2, §3, §4, §5, §6

Chain of hCA I (P00915 whole entry): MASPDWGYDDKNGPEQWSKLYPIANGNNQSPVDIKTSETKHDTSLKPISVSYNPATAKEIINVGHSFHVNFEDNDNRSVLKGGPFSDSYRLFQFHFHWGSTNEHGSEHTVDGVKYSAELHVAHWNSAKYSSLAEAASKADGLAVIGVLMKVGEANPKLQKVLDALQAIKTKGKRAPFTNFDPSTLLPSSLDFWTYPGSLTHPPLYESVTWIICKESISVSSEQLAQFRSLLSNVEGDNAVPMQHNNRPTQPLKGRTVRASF

Row | SMILES | melting point | inhibition effect on hCA I (in words) (hCA I) | inhibition effect on hCA II (in words) (hCA II) | Inhibition Type hCA I (hCA I) | Ki (hCA I) | IC50 (hCA I) | Inhibition Type hCA II (hCA II) | Ki (hCA II) | IC50 (hCA II) | maximal decrease of hCA I activity (hCA I; at most) | stronger inhibitory effect than AAZ for hCA II (hCA II; compared with reference compound AAZ)
1 | N=C(N)NS(=O)(=O)c1ccc(NC(=O)c2nn(-c3ccccc3)c(-c3ccccc3)c2C(=O)c2ccccc2)cc1 [Compound 6i, 4-benzoyl-N-(4-(N-carbamimidoylsulfamoyl)phenyl)-1,5-diphenyl-1H-pyrazole-3-carboxamide] | 280 to 282 °C | did not show any inhibition effect | did not show any inhibition effect |  |  |  |  |  |  |  | 
2 | NS(=O)(=O)c1ccccc1NC(=O)c1nn(-c2ccccc2)c(-c2ccccc2)c1C(=O)c1ccccc1 [Compound 6c, 4-benzoyl-1,5-diphenyl-N-(2-sulfamoylphenyl)-1H-pyrazole-3-carboxamide] | 233 to 235 °C |  |  | Non competitive | 3370 nM | 6200 nM | Non competitive | 4230 nM | 6410 nM |  | 
3 | NS(=O)(=O)c1cccc(NC(=O)c2nn(-c3ccccc3)c(-c3ccccc3)c2C(=O)c2ccccc2)c1 [Compound 6b, 4-benzoyl-1,5-diphenyl-N-(3-sulfamoylphenyl)-1H-pyrazole-3-carboxamide] |  |  |  | Non competitive | 237 nM | 463 nM | Non competitive | 30 nM | 139 nM |  | approximately fivefold

More lines, now with the values ahead:

Row | melting point | inhibition effect on hCA I (in words) (hCA I) | inhibition effect on hCA II (in words) (hCA II) | Inhibition Type hCA I (hCA I) | Ki (hCA I) | IC50 (hCA I) | Inhibition Type hCA II (hCA II) | Ki (hCA II) | IC50 (hCA II) | maximal decrease of hCA I activity (hCA I; at most) | stronger inhibitory effect than AAZ for hCA II (hCA II; compared with reference compound AAZ) | SMILES
4 | 244 to 246 °C | did not show any inhibition effect | did not show any inhibition effect |  |  |  |  |  |  |  |  | O=C(Nc1ccc(S(=O)(=O)Nc2ncccn2)cc1)c1nn(-c2ccccc2)c(-c2ccccc2)c1C(=O)c1ccccc1 [Compound 6e, 4-benzoyl-1,5-diphenyl-N-(4-(N-(pyrimidin-2-yl)sulfamoyl)phenyl)-1H-pyrazole-3-carboxamide]
5 | 239 to 241 °C | did not show any inhibition effect | did not show any inhibition effect |  |  |  |  |  |  |  |  | O=C(Nc1ccc(S(=O)(=O)Nc2ccccn2)cc1)c1nn(-c2ccccc2)c(-c2ccccc2)c1C(=O)c1ccccc1 [Compound 6d, 4-benzoyl-1,5-diphenyl-N-(4-(N-(pyridin-2-yl)sulfamoyl)phenyl)-1H-pyrazole-3-carboxamide]
6 | 237 to 239 °C | did not show any inhibition effect | did not show any inhibition effect |  |  |  |  |  |  |  |  | Cc1ccnc(NS(=O)(=O)c2ccc(NC(=O)c3nn(-c4ccccc4)c(-c4ccccc4)c3C(=O)c3ccccc3)cc2)n1 [Compound 6f, 4-benzoyl-N-(4-(N-(4-methylpyrimidin-2-yl)sulfamoyl)phenyl)-1,5-diphenyl-1H-pyrazole-3-carboxamide]
7 | 165 to 167 °C |  |  |  |  | 1660 nM |  |  |  | ≤ 50% |  | Cc1noc(NS(=O)(=O)c2ccc(NC(=O)c3nn(-c4ccccc4)c(-c4ccccc4)c3C(=O)c3ccccc3)cc2)c1C [Compound 6g, 4-benzoyl-N-(4-(N-(3,4-dimethylisoxazol-5-yl)sulfamoyl)phenyl)-1,5-diphenyl-1H-pyrazole-3-carboxamide]
8 | 252 to 254 °C |  | did not inhibit |  |  |  |  |  |  |  |  | O=C(Nc1ccc(S(=O)(=O)Nc2nccs2)cc1)c1nn(-c2ccccc2)c(-c2ccccc2)c1C(=O)c1ccccc1 [Compound 6h, 4-benzoyl-1,5-diphenyl-N-(4-(N-(thiazol-2-yl)sulfamoyl)phenyl)-1H-pyrazole-3-carboxamide]
